≈ marks a conversion by molar mass, not a printed value.

These results are taken from PMC11314561, “Design and Synthesis of Novel Aminoindazole-pyrrolo[2,3-b]pyridine Inhibitors of IKKα That Selectively Perturb Cellular Non-Canonical NF-κB Signalling” (Molecules, 2024).

The target of data set [1] is T1, IKKα (Homo sapiens, UniProt O15111).
T1 sequence (O15111 1-745): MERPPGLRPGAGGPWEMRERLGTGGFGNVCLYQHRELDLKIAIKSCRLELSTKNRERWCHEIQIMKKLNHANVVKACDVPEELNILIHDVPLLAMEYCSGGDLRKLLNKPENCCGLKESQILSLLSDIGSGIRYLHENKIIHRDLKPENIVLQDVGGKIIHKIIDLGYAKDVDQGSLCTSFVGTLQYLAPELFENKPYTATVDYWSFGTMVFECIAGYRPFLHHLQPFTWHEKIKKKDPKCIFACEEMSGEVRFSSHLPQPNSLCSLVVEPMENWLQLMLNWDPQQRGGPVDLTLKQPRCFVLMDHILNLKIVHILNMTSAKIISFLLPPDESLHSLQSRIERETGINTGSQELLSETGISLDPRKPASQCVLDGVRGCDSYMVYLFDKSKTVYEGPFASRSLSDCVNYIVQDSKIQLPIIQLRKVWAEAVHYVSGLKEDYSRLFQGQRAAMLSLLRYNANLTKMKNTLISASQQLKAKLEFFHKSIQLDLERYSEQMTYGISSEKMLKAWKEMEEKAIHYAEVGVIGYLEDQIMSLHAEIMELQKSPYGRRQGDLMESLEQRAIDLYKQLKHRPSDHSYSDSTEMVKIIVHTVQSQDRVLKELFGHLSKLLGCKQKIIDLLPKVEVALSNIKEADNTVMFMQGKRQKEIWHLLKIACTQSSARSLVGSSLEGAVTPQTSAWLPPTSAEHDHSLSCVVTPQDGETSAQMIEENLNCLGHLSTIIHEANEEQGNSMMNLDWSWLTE
Kind of data set: DELFIA kinase assay, IKKα. In kind it is biochemical. The settings on record: DELFIA kinase assay. From the text: To examine the pyrrolo[2,3-b]pyridines as an alternative scaffold, we adopted the AIPP core because it had similar dimensions to SU909 (1), with HBD/HBA motifs positioned at the scaffold extremities to interact with both the hinge region and the G-loop wall of IKKα, a rationale we had previously proposed as the basis for imparting selectivity. A preliminary set of AIPP derivatives was designed and synthesised to explore its utility as an IKK-targeting scaffold, whilst incorporating additional functionality through which to introduce selectivity for the IKKα isoform (2–4; Figure 3). This was achieved by initially adopting two different approaches: either appending a hydrophobic moiety to the pyrrolo[2,3-b]pyridine motif as a fused form to afford the tricyclic derivatives 2 and 3, or as a phenyl substituent to introduce flexibility with respect to the central pyrrolo[2,3-b]pyridine moiety in 4. When assessed against IKKα and IKKβ using our in-house DELFIA kinase assay […] The pyrrolo[2,3-b]pyridine was bound to the hinge region in the classical HBA/HBD motif with the GK+3 amide backbone, whilst the aminoindazole projected towards the top of the pocket to interact with the G-loop (Figure 4A). […] In both isoforms, the 2-phenyl moiety protruded away from the hinge towards the exposed solvent area.
(§1) IKKα and IKKβ inhibitory activity were determined using a dissociation-enhanced ligand fluorescent immunoassay (DELFIA) based on the protocol of HTScan™ IKKβ Kinase Assay (Cell Signaling Technology, Danvers, MA, USA) as described in [24].

The target of data set [2] is T2, IKKβ (Homo sapiens, UniProt O14920).
T2 sequence (O14920 1-756): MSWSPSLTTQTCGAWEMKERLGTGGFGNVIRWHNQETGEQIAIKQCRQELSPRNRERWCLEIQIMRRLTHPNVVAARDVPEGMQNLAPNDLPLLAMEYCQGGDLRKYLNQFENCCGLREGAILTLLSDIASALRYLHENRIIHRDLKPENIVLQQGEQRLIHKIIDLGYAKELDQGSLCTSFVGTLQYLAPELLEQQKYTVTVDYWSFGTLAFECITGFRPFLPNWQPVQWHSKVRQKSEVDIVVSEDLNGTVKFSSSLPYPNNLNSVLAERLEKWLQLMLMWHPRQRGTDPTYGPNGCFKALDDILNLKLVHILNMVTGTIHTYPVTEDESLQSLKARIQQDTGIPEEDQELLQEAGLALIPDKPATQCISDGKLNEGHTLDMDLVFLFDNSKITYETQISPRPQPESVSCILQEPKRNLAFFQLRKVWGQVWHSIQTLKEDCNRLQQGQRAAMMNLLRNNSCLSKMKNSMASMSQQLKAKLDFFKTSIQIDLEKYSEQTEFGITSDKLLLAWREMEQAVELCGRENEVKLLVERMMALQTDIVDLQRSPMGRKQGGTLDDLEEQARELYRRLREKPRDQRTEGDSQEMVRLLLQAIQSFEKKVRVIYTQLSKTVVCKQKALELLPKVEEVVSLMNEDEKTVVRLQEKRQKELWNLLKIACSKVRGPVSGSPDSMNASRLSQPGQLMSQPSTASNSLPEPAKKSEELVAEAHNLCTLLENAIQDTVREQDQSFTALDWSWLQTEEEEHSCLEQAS
Kind of data set: DELFIA kinase assay, IKKβ. In kind it is biochemical. The settings on record: read-out: Ki Values IKKβ. Here is the method:
as §1

Data set [3] in a line: Turbidimetric solubility. In kind it is physicochemical. Conditions: pH 7.4, aqueous buffer, kinetic from dmso stock, 0.01 M phosphate-buffered saline pH7.4. How it is done:
Pharmacokinetic studies were contracted to Sygnature Discovery Limited. Turbidimetric Solubility was determined by diluting compound solutions (1 μM, 3 μM, 10 μM, 30 μM, 100 μM) prepared in DMSO into 0.01 M phosphate-buffered saline pH7.4. Turbidimetry was used as the endpoint by measuring absorbance at 620 nm.

A short description of data set [4]: Mouse hepatocyte intrinsic clearance and half-life. In kind it is in vitro ADME. The settings on record: mouse CD1 hepatocytes. Here is the method:
Intrinsic clearance and half-life were determined using cryopreserved pooled mouse CD1 hepatocytes. Test compounds were analysed at 1 µM in Williams Media E buffer (0.01% DMSO) at a cell density of 0.5 × 10^6 cells mL^–1. Cells were incubated at 37 °C for one hour with shaking, and compound depletion was measured by LC-MS/MS at six time points (0.25, 5, 10, 20, 40, and 60 min).

Take `Nc1n[nH]c2ccc(-c3ccnc4[nH]c(-c5cc(F)nc(CNc6ccccc6)c5)cc34)cc12` [Compound 6f]: the Ki in data set [1] is 33 nM; in data set [2], 503 nM. For the same compound, the solubility in data set [3] was determined as 3.75 µM (≈ 1.69 µg/mL).

On to `Nc1n[nH]c2ccc(-c3ccnc4[nH]c(-c5ccnc(SCc6ccccc6)c5)cc34)cc12` [Compound 6h], for which the results for the inhibition constant Ki in data set [1] and in data set [2] were 5 nM and 1180 nM, respectively. For the same compound, the solubility in data set [3] was 2 µM (≈ 0.897 µg/mL).

`Nc1n[nH]c2ccc(-c3ccnc4[nH]c(-c5ccnc(OCc6ccncc6)c5)cc34)cc12` [Compound 6k]: the Ki amounted to 6 nM in data set [1] and 12 nM in data set [2]. In data set [4] (cryopreserved pooled hepatocytes), this compound came in with a half-life at 1 µM of 2.02 h. In data set [4] (1 µM), the “Mouse Hepatocyte Clearance” value was determined as 11 μL/min/10^6 Cells. In addition, the solubility in data set [3] was greater than 100 µM.

In the case of `Nc1n[nH]c2ccc(-c3ccnc4[nH]c(-c5cc(OCc6ccccc6)ccn5)cc34)cc12` [Compound 6j], the Ki in data set [1] came out at 25 nM; in data set [2], 2300 nM. The compound also returned a solubility in data set [3] of 2 µM (≈ 0.865 µg/mL).

For orientation: Ki means the dissociation constant of the complex between target and ligand, obtained from inhibition or displacement. Usually solubility stands for the concentration that dissolves in the medium under given conditions. Low values mean little dissolved substance, high ones much dissolved substance. Usually half-life stands for the time in which the quantity being followed falls by half. Low values mean rapid decline, high ones slow decline.
